These compounds were tested against human A2A receptor (Homo sapiens (Human), UniProt P29274) (assay: A2A competition binding assay using Scintillation Proximity technology). Conditions: 0.25 μg of membranes from HEK293 cells expressing the human A2a receptor per well; 0.5 nM tritiated radioligand; Cheng-Prusoff.
Protocol: Binding affinities of compounds of the invention for the human A2A receptor were determined in a competition binding assay using Scintillation Proximity technology. Thus, 1^μg (^ denotes 1 μg of membrane/well), or preferably 0.25 μg of membranes from HEK293 cells expressing the human A2a receptor were incubated with a compound of the invention at concentrations ranging from 3000 nM to 0.15 nM in a reaction mixture containing also 0.5 nM of a tritiated form of 5-amino-7-[2-phenethyl]-2-(furan-2-yl)-7H-pyrazolo[4,3-e][1,2,4]triazolo[1,5-c]pyrimidine (the tritiated compound) and 25 μg of wheat germ agglutin-coated yttrium silicate SPA beads for one hour at room temperature with agitation. The beads were then allowed to settle to the bottom of the wells for 1 hr, after which the membrane-associated radioactivity was determined by scintillation counting in a TopCount microplate reader. Ki values were determined using the Cheng-Prusoff equation.
HEK293 cells expressing the human, rat, dog or monkey adenosine 2a receptor (Purchased from Perkin-Elmer # RBHA2AM400UA).
The Tritiated compound was prepared in-house by MRL Radiochemistry according to published methods.
Wheat germ agglutinin-coated yttrium silicate SPA beads (GE Healthcare #RPNQ0023). Dilute to 25 mg/mL in assay buffer.
Assay Buffer was prepared in house: Dulbecco's calcium and magnesium free phosphate buffered saline+10 mM MgCl2
Adenosine deaminase from calf intestine, 10 mg/2 mL (Roche #10 102 105 001).
A2A antagonist standard (9-chloro-1-(2-furanyl)-[1,2,4]triazolo[1,5-c]quinazolin-5-amine from Tocris Bioscience)
Make eight 1:3 serial dilutions in 100% DMSO from a 3 mM compound stock
Transfer 50 nL of compound into a 384-well OptiPlate (Perkin Elmer).
Typically, final concentrations of compound used in the assay ranged from 3000 nM to 0.152 nM.
Dilute a solution of the Tritiated compound to 1.25 nM in assay buffer. This a 2.5× solution. The final concentration in the assay is 0.5 nM. Calculate the concentration by counting two 5 μL aliquots.
Use *1 ug or preferrably 0.25 ug of membrane/well. Dilute membranes to 9.7 μg/ml in assay buffer. Treat with 20 ug/ml adenosine deaminase (ADA) for 15 minutes at room temperature to degrade endogenous adenosine.
Use 25 μg/well wheat germ agglutinin-coated yttrium silicate SPA beads.
Mix ADA-treated membranes and SPA beads together for 30 min prior to assay.
To the Perkin-Elmer Optiplate-384 containing the compound titration add 20 μL of 2.5× solution of the Tritiated compound and 30 μL of the membrane-bead mixture. Incubate for one hour at room temperature with agitation.
Include total binding (assay buffer+1% DMSO) and non-specific binding (CGS15943, 1 μM) wells.
Allow the beads to settle for one hour.
A curve fitting program (i.e., Prism, Activity Base, Chemcart) is used to determine the EC50. The Ki value is calculated using the Cheng-Prusoff equation. Ki=EC50/(1+(radioligand concentration/Kd)) Counting and Calculations
Counting and calculations were performed as described within the “A2A Activity Binding of Compounds of the Invention” section. Using the foregoing methods, the following results were obtained using compounds of the invention described herein. Each example compound tested is reported in the following format: Example number: A2A Ki (nM) selectivity.

Sequence of human A2A receptor (P29274 whole entry): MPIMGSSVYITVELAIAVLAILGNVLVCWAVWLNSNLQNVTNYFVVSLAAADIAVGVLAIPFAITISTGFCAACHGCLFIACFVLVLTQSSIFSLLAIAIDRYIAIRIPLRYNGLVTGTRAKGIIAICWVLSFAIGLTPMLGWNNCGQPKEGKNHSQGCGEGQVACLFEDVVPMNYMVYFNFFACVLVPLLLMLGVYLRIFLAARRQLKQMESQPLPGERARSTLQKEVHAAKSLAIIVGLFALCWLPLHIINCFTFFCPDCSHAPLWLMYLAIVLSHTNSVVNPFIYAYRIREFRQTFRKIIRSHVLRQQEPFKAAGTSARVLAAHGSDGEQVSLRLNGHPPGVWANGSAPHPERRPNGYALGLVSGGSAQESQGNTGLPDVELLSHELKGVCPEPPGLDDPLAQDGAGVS

Ki	SMILES
115 nM	COc1cccc2c1nc(N)n1nc(C3CCCC(N)C3)nc21 (single isomer, unassigned) [Example 30C, 2-(3-aminocyclohexyl)-7-methoxy-[1,2,4]triazolo[1,5-c]quinazolin-5-amine]
9.9 nM	COc1cccc2c1nc(N)n1nc(C3CC4CCC3N(CC(F)(F)F)C4)nc21 (single isomer, unassigned) [Example 35D, 7-methoxy-2-(2-(2,2,2-trifluoroethyl)-2-azabicyclo[2.2.2]octan-6-yl)-[1,2,4]triazolo[1,5-c]quinazolin-5-amine]
44 nM	COc1cccc2c1nc(N)n1nc(C3CCCC(N)C3)nc21 (single isomer, unassigned) [Example 30B, 2-(3-aminocyclohexyl)-7-methoxy-[1,2,4]triazolo[1,5-c]quinazolin-5-amine]
660 nM	COc1cccc2c1nc(N)n1nc(C3CCCC(N)C3)nc21 (single isomer, unassigned) [Example 30D, 2-(3-aminocyclohexyl)-7-methoxy-[1,2,4]triazolo[1,5-c]quinazolin-5-amine]
5.3 nM	COc1cccc2c1nc(N)n1nc(C3CNCC(F)(F)C3)nc21 (single isomer, unassigned) [Example 33A, 2-(5,5-difluoropiperidin-3-1-yl)-7-methoxy-[1,2,4]triazolo[1,5-c]quinazolin-5-amine]
0.7 nM	COc1cccc2c1nc(N)n1nc(C3CCCCN(CC(F)(F)F)C3)nc21 (single isomer, unassigned) [Example 32A, 7-methoxy-2-(1-(2,22-trifluoroethyl)azepan-3-yl)-[1,2,4]triazolo[1,5-c]quinazolin-5-amine]
2 nM	COc1cccc2c1nc(N)n1nc(C3CC(F)(F)CCO3)nc21 (single isomer, unassigned) [Example 55B, 2-(4,4-difluorotetrahydro-2H-pyran-2-yl)-7-methoxy-[1,2,4]triazolo[1,5-c]quinazolin-5-amine]
91 nM	COc1cccc2c1nc(N)n1nc(C3CCCC(N)C3)nc21 (single isomer, unassigned) [Example 30A, 2-(3-aminocyclohexyl)-7-methoxy-[1,2,4]triazolo[1,5-c]quinazolin-5-amine]
4.7 nM	COc1cccc2c1nc(N)n1nc(C3CN(CC(F)F)CC(F)(F)C3)nc21 (single isomer, unassigned) [Example 34B, 2-(1-(2,2-difluoroethyl)-5,5-difluoropiperidin-3-yl)-7-methoxy-[1,2,4]triazolo[1,5-c]quinazolin-5-amine]
54 nM	COc1cccc2c1nc(N)n1nc(C3CC4CCC3N(CC(F)(F)F)C4)nc21 (single isomer, unassigned) [Example 35B, 7-methoxy-2-(2-(2,2,2-trifluoroethyl)-2-azabicyclo[2.2.2]octan-6-yl)-[1,2,4]triazolo[1,5-c]quinazolin-5-amine]

Further lines, the compound ahead of its results:

SMILES	Ki
COc1cccc2c1nc(N)n1nc([C@@H]3CCCN(CC4(C)COC4)C3)nc21 [Example 18, (R)-7-methoxy-2-(1-((3-methyloxetan-3-yl)methyl)piperidin-3-yl)-[1,2,4]triazolo[1,5-d]quinazolin-5-amine]	3 nM
CCC(C)(C)N1CCC[C@@H](c2nc3c4cccc(OC)c4nc(N)n3n2)C1 [Example 31, (R)-7-methoxy-2-(1-(tert-pentyl)piperidin-3-yl)-[1,2,4]triazolo[1,5-c]quinazolin-5-amine]	33 nM
COc1cccc2c1nc(N)n1nc([C@@H]3CCCN(CCN4CCOCC4)C3)nc21 [Example 15, (R)-7-methoxy-2-(1-(2-morpholinoethyl)piperidin-3-yl)-[1,2,4]triazolo[1,5-c]quinazolin-5-amine]	1.5 nM
COc1cccc2c1nc(N)n1nc([C@@H]3CC(F)(F)CN3)nc21 [Example 57, (S)-2-(4,4-difluoropyrrolidin-2-yl)-7-methoxy-[1,2,4]triazolo[1,5-c]quinazolin-5-amine]	0.5 nM
COc1cccc2c1nc(N)n1nc([C@@H]3CCCN(CC(F)F)C3)nc21 [Example 3, (R)-2-(1-(2,2-difluoroethyl)piperidin-3-yl)-7-methoxy-[1,2,4]triazolo[1,5-c]quinazolin-5-amine]	0.4 nM
COc1cccc2c1nc(N)n1nc([C@@H]3CCCN(C4CC4)C3)nc21 [Example 52, (R)-2-(1-cyclopropylpiperidin-3-yl)-7-methoxy-[1,2,4]triazolo[1,5-c]quinazolin-5-amine]	1.2 nM
COc1cccc2c1nc(N)n1nc([C@@H]3CCCN(CC4CCCC4)C3)nc21 [Example 47, 2-((3R)-1-(cyclopentylmethyl)piperidin-3-yl)-7-methoxy[1,2,4]triazolo [1,5-c]quinazolin-5-amine]	9.7 nM
Nc1nc2ccccc2c2nc([C@@H]3CCCN(CC(F)F)C3)nn12 [Example 28, (R)-2-(1-(2,2-difluoroethyl)piperidin-3-yl)-[1,2,4]triazolo[1,5-c]quinazolin-5-amine]	11 nM
COc1cccc2c1nc(N)n1nc([C@@H]3CCCN(CCC4CC4)C3)nc21 [Example 14, (R)-2-(1-(2-cyclopropylethyl)piperidin-3-yl)-7-methoxy-[1,2,4]triazol[1,5-c]quinazolin-5-amine]	6.9 nM
COc1cccc2c1nc(N)n1nc([C@H]3CCCN(CCC(F)(F)F)C3)nc21 [Example 12, (S)-7-methoxy-2-(1-(3,3,3-trifluoropropyl)piperidin-3-yl)-[1,2,4]triazolo[1,5-c]quinazolin-5-amine]	14 nM

Same assay, conditions: values marked ^: 1 μg of membrane/well (HEK293 cells expressing the human A2a receptor); 0.5 nM tritiated radioligand; Cheng-Prusoff

Ki	SMILES
7.6 nM	COc1cccc2c1nc(N)n1nc([C@@H]3CCCN(CCCC(F)(F)F)C3)nc21 [Example 16, (R)-7-methoxy-2-(1-(4,4,4-trifluorobutyl)piperidin-3-yl)-[1,2,4]triazolo[1,5-c]quinazolin-5-amine]
2 nM	COc1cccc2c1nc(N)n1nc([C@@H]3CCCN(c4nnc(C)s4)C3)nc21 [Example 19, (R)-7-methoxy-2-(1-(5-methyl-1,3,4-thiadiazol-2-yl)piperidin-3-yl)-[1,2,4]triazolo[1,5-c]quinazolin-5-amine]
9.7 nM	Nc1nc2c(Cl)cccc2c2nc(C3CCCN(CCC(F)(F)F)C3)nn12 (racemic) [Example 27, (±)-7-chloro-2-(1-(3,3,3-trifluoropropyl)piperidin-3-yl)-[1,2,4]triazolo[1,5-c]quinazolin-5-amine]
1.3 nM	COc1cccc2c1nc(N)n1nc([C@@H]3CCCN(C(=O)c4ccccc4)C3)nc21 [Example 37, (R)-(3-(5-amino-7-methoxy-[1,2,4]triazolo[1,5-c]quinazolin-2-yl)piperidin-1-yl)(phenyl)methanone]
2.1 nM	COc1cccc2c1nc(N)n1nc([C@@H]3CCCN(Cc4cnc(C)s4)C3)nc21 [Example 48, 7-methoxy-2-((3R)-1-((2-methyl-1,3-thiazol-5-yl)methyl)piperidin-3-yl)[1,2,4]triazolo[1,5-c]quinazolin-5-amine]
3.8 nM	COc1cccc2c1nc(N)n1nc([C@@H]3CCCN(Cc4cccnc4)C3)nc21 [Example 45, 7-methoxy-2-((3R)-1-(pyridin-3-ylmethyl)piperidin-3-yl)[1,2,4]triazolo[1,5-c]quinazolin-5-amine]
1.5 nM	COc1cccc2c1nc(N)n1nc([C@@H]3CCCN(C(=O)c4ocnc4C)C3)nc21 [Example 40, 7-methoxy-2-((3R)-1-((4-methyl-1,3-oxazol-5-yl)carbonyl)piperidin-3-yl)[1,2,4]triazolo[1,5-c]quinazolin-5-amine]
1.9 nM	COc1cccc(C(=O)N2CCC[C@@H](c3nc4c5cccc(OC)c5nc(N)n4n3)C2)c1 [Example 41, 7-methoxy-2-((3R)-1-((3-methoxyphenyl)carbonyl)piperidin-3-yl)[1,2,4]triazolo[1,5-c]quinazolin-5-amine]
0.8 nM	Nc1nc2c3c(ccc2c2nc(C4CCCN(CCC(F)(F)F)C4)nn12)OC(F)(F)O3 (single isomer, unassigned) [Example 56A]

Reference: patent US10822338B2, “Substituted aminoquinazoline compounds as A2A antagonist” (Merck Sharp & Dohme Corp., priority 2015, dated 2020)
